Assay results: patent US20120302748A1, “TREATMENT OR PROPHYLAXIS OF PROLIFERATIVE CONDITIONS” (THE UNIVERSITY COURT OF THE UNIVERSITY OF DUNDEE, priority 2009, published 2012)

Assays:
UT-SCC-14 tumour cells = assay: Cytotoxicity in primary HNSCC tumour cell line UT-SCC-14 (MTS assay); conditions: Homo sapiens, 72 h, read-out: cytotoxicity IC50 UT-SCC-14
Protocol: A UT-SCC-14 tumour cell suspension at 2000 cells per well on a 96-well plate and if necessary add fresh media to give a total volume per well of 100 μl. The cells were allowed to attach for 4 h in an incubator. […] The final concentration of ethanol 0.2% was found not to effect the growth characteristics of the UT-SCC-14 cell line. The UT-SCC-14 cells were incubated with test compound for 72 h after which time all aspirated and replaced with 100 μl of fresh medium to compensate for the loss of medium due to evaporation. The cells were incubated with 20 μl of the MTS assay reagent for 1.5 h and the absorbance per well at 510 nm measured using a plate reader. The mean absorbance and standard deviation for each test compound concentration was calculated versus a series of controls including (a) cells plus medium, (b) cell plus medium containing ethanol 0.2%, (c) medium alone, and (d) medium containing ethanol 0.2% and a range of test compound concentrations from 0 to 100 μmol dm^−3.

CYP1B1 [1] = biological target: T1, CYP1B1 (Homo sapiens, UniProt Q16678); assay: in vitro
T1 sequence (Q16678 1-543): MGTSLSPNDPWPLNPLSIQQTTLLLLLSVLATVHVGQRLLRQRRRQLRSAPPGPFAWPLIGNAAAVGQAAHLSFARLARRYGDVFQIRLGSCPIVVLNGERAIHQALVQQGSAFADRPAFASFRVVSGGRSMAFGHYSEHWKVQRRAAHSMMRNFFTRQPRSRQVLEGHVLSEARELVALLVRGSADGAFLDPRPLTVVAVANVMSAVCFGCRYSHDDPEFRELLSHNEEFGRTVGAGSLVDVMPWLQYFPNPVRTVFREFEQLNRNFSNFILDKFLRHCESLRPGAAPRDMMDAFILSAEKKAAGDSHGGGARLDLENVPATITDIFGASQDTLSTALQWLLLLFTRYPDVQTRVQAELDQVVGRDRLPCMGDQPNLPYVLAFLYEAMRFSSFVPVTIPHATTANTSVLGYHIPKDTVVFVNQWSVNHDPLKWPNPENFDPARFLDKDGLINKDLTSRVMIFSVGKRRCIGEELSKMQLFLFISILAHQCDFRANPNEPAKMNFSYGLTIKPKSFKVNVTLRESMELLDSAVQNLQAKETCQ

CYP1B1 [2] = biological target: T1, CYP1B1; assay: CYP1B1 substrate prediction model (Gaussian Kernel weighted k-NN); conditions: predicted versus actual
CYP1B1 [3] = biological target: T1, CYP1B1; assay: Supersomal CYP1B1 fragmentation of coumarin model prodrugs (kinetic fluorimetry); format: biochemical; parameters: purchased BD Gentest, Oxford, UK; conditions: for Specific fragmentation activity CYP1B1: 10 μmol dm^−3 prodrug, 10 pmol enzyme, pH 7.4, 37° C., mean ± standard deviation of three
Protocol: (§1) Supersomal™ enzyme metabolism was started by adding a stock solution of prodrug dissolved in DMSO to give a final concentration of 10 μmol dm^−3 prodrug and 0.5% DMSO. HLM screening used 60 microlitre microsomes, 100 μmol dm^−3 NADPH, in 10 mmol dm^−3 potassium phosphate buffer at pH 7.4 and 37° C., in 1.5 ml total reaction volume.
(§2) Therefore, enzymatic hydroxylation of the hetero-aromatic trigger and resultant linker fragmentation can be monitored in real time by release of the coumarin anion by kinetic fluorimetry.
(§3) Release of the coumarin anion indicative of linker fragmentation was monitored using a 1 cm path length fluorescence cell in a Cary Eclipse kinetic flourimeter with excitation and emission slits set at 5 nm. Coumarin anion release from compounds of the invention was detected at the excitation wavelength λex=350 nm and the emission wavelength λem=450 nm. Change in fluorescence intensity was quantified against a linear calibration plot of fluorescence intensity versus coumarin concentration (0 to 3.5 μmol dm^−3) in 10 mmol dm^−3 potassium phosphate buffer at pH 7.4 using the same instrument settings as for enzyme metabolism.

CYP1A2 = biological target: T2, CYP1A2 (Homo sapiens, UniProt P05177); assay: Supersomal CYP1A2 fragmentation of coumarin model prodrugs (kinetic fluorimetry); format: biochemical; conditions: 10 μmol dm^−3 prodrug, 10 pmol enzyme, pH 7.4, 37° C.; mean ± standard deviation of three
T2 construct: purchased BD Gentest, Oxford, UK
T2 sequence (P05177 2-516 limits assumed): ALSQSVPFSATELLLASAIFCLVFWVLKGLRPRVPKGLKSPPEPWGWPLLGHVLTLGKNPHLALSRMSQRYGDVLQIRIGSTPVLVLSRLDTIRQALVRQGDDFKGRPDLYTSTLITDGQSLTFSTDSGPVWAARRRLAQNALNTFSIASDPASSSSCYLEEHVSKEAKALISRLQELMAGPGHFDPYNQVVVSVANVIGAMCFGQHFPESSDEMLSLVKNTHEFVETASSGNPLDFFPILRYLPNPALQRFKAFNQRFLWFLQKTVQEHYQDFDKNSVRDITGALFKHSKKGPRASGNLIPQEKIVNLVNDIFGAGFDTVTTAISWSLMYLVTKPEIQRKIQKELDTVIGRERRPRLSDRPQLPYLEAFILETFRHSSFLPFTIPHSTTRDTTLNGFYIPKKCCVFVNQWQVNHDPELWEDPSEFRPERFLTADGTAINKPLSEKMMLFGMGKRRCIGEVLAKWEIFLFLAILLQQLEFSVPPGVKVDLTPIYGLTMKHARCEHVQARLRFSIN
Protocol: as §1, §2, §3

[4] = test system: human liver microsomes (HLM); assay: Pooled human liver microsome (HLM) fragmentation of coumarin model prodrugs; format: in vitro ADME; conditions: 60 μl HLM in 1.5 ml, pH 7.4, 37° C.; mean ± standard deviation of three
Protocol: as §1, §2, §3

CHO/CYP1B1 cells = conditions: Chinese hamster

SMILES | Specific fragmentation activity CYP1B1 (CYP1B1 [3]) | Specific fragmentation activity HLM [4] | also measured
COc1cc(OC)c2oc(COC(=O)Nc3ccn(C4OC(CO)C(O)C4(F)F)c(=O)n3)cc2c1 (stereo not shown) [SU048-04, (5,7-dimethoxybenzofuran-2-yl)methyl 1-(3,3-difluoro-4-hydroxy-5-(hydroxymethyl)-tetrahydrofuran-2-yl)-2-oxo-1,2-dihydropyrimidin-4-ylcarbamate] | – | – | IC50 (UT-SCC-14 tumour cells): 0.94 ± 0.02 µM
Nc1ccc(S(=O)(=O)Nc2ccnn2-c2ccccc2)cc1 [sulfaphenazole] | – | – | inhibition at 0.5 mmol dm^−3 (CYP1B1 [1]): 2.89 ± 0.15%; % CYP1B1 substrate inhibition accuracy (CYP1B1 [2]): 68%
Cc1cc(=O)oc2cc(OCc3cc4cc(Br)ccc4o3)ccc12 [VG035-04, 7-((5-bromobenzofuran-2-yl)methoxy)-4-methyl-2H-chromen-2-one] | 8.85 ± 0.28 pmol coumarin min^−1 pmol cytochrome P450^−1 | – | –
C=C[C@H]1C[N@@]2CC[C@H]1C[C@@H]2[C@@H](O)c1ccnc2ccc(OC)cc12 [quinidine] | – | – | inhibition at 0.5 mmol dm^−3 (CYP1B1 [1]): 1.63 ± 0.34%; % CYP1B1 substrate inhibition accuracy (CYP1B1 [2]): 64%
CCOc1ccc2nc3ccc(=O)cc-3oc2c1 [ethoxyresorufin, 7-ethoxyresorufin] | – | – | inhibition at 0.5 mmol dm^−3 (CYP1B1 [1]): 92.13 ± 0.56%; % CYP1B1 substrate inhibition accuracy (CYP1B1 [2]): 95%
COc1cc(OC)c2oc(COC(=O)Nc3ccc4c(C)cc(=O)oc4c3)cc2c1 [VG041-05, (5,7-dimethoxybenzofuran-2-yl)methyl 4-methyl-2-oxo-2H-chromen-7-ylcarbamate] | no release | no release | Specific fragmentation activity CYP1A2 (CYP1A2): no release
COc1ccc2oc(COC(=O)Nc3ccc4c(C)cc(=O)oc4c3)cc2c1 [VG032-05, (5-methoxybenzofuran-2-yl)methyl 4-methyl-2-oxo-2H-chromen-7-ylcarbamate] | 1.53±0.09 pmol coumarin min^−1 pmol cytochrome P450^−1 | 3.21 ± 0.25 pmol coumarin min^−1 pmol cytochrome P450^−1 | Specific fragmentation activity CYP1A2 (CYP1A2): no release; CYP1B1 specific fragmentation activity, fold lower than VG027-05 (CYP1B1 [3]; carbamate linker versus ether linker): ~6 fold
COc1ccc2oc(COc3ccc4c(C)cc(=O)oc4c3)cc2c1 [VG027-05, 7-((5-methoxybenzofuran-2-yl)methoxy)-4-methyl-2H-chromen-2-one] | 11.83 ± 0.15 pmol coumarin min^−1 pmol cytochrome P450^−1 | 8.98 ± 0.49 pmol coumarin min^−1 pmol cytochrome P450^−1 | –
Cc1cc(=O)oc2cc(OCc3cc4ccccc4o3)ccc12 [SU010A, 7-(benzofuran-2-ylmethoxy)-4-methyl-2H-chromen-2-one] | 5.19 ± 0.15 pmol coumarin min^−1 pmol cytochrome P450^−1 | 22.8 ± 0.69 pmol coumarin min^−1 pmol cytochrome P450^−1 | –
Oc1ccc(C=Cc2cc(O)cc(O)c2)cc1 [resveratrol] | – | – | inhibition at 0.5 mmol dm^−3 (CYP1B1 [1]): 72.34 ± 0.56%; % CYP1B1 substrate inhibition accuracy (CYP1B1 [2]): 95%
Cc1cc(=O)oc2cc(NC(=O)OCc3cc4ccccc4o3)ccc12 [SU018-03, benzofuran-2-ylmethyl 4-methyl-2-oxo-2H-chromen-7-ylcarbamate] | no release | no release | Specific fragmentation activity CYP1A2 (CYP1A2): no release
O=P(O)(NCCCl)NCCCl [Cl-IPM, N,N-bis(2-chloro-ethyl)phosphoramide, reference compound] | – | – | IC50 (CHO/CYP1B1 cells): 0.008 ± 0.005 µM
Cc1cc(=O)oc2cc(OCc3cc4cc(Cl)ccc4o3)ccc12 [VG028-05, 7-((5-chlorobenzofuran-2-yl)methoxy)-4-methyl-2H-chromen-2-one] | 6.67 ± 0.01 pmol coumarin min^−1 pmol cytochrome P450^−1 | – | –
COc1cccc2cc(COc3ccc4c(C)cc(=O)oc4c3)oc12 [VG029-05, 7-((7-methoxybenzofuran-2-yl)methoxy)-4-methyl-2H-chromen-2-one] | 6.45 ± 1.15 pmol coumarin min^−1 pmol cytochrome P450^−1 | – | –
Cc1cc(=O)oc2cc(OCc3cc4cc(F)ccc4o3)ccc12 [VG015-05, 7-((5-fluorobenzofuran-2-yl)methoxy)-4-methyl-2H-chromen-2-one] | 3.16 ± 0.28 pmol coumarin min^−1 pmol cytochrome P450^−1 | – | –
